Common to all, as to type: cell-based
For assay [1], the system named is primary umbilical cord-derived mesenchymal stem cells. Kind of assay: Content of exosomal protein (Bradford analysis, 595 nm). The following applies: for Exosomal protein, yield per 10^6 cells: then 72 h exosome-free FBS medium, non-treated 2.0. Here is the method: (§1) In a culture medium [high glucose DMEM (Gibco, Cat no. 11995-065); 10% fetal bovine serum (HyClone), 1% MEM non-essential amino acids solution (100×) (Gibco, Cat no. 11140-050)] containing 20 nM of exendin-4, primary umbilical cord-derived mesenchymal stem cells (ATCC No. PCS-500-010; Lot No. 63822428) were cultured for one week.
(§2) After completion of culturing, the mesenchymal stem cells pretreated with exendin-4 were washed and additionally cultured for 72 hours in a culture medium supplemented with 10% fetal bovine serum (FBS) free of exosomes. The reason of employing exosome-free FBS was to prevent FBS-derived exosomes other than those secreted from the cells from being incorporated because generally used FBS contained a large amount of exosomes derived from bovine serum.
(§3) After 72 hours of culturing, the culture medium in which the pretreated mesenchymal stem cells were cultured was taken and centrifuged at 300×g for 10 min to remove residual cells and cell debris. The supernatant was filtered through a 0.22 μm filter, followed by centrifugation at 10,000×g and 4° C. for 70 min in a high-speed centrifuge. The supernatant thus obtained was subjected again to ultracentrifugation at 100,000×g and 4° C. for 90 min. The exosomes obtained as a pellet were diluted in PBS (phosphate buffered saline) before use in the following experiments.
(§4) In a culture medium [high glucose DMEM (Gibco, Cat no. 11995-065); 10% fetal bovine serum (HyClone), 1% MEM non-essential amino acids solution (100×) (Gibco, Cat no. 11140-050)] containing 10 nM of PMA, primary umbilical cord-derived mesenchymal stem cells (ATCC No. PCS-500-010; Lot No. 63822428) were cultured for one week.
(§5) After completion of culturing, the mesenchymal stem cells pretreated with PMA were washed and additionally cultured for 72 hours in a culture medium supplemented with 10% fetal bovine serum (FBS) free of exosomes. The reason of employing exosome-free FBS was to prevent FBS-derived exosomes other than those secreted from the cells from being incorporated because generally used FBS contained a large amount of exosomes derived from bovine serum.
(§6) In a culture medium [high glucose DMEM (Gibco, Cat no. 11995-065); 10% fetal bovine serum (HyClone), 1% MEM non-essential amino acids solution (100×) (Gibco, Cat no. 11140-050)] containing 10 ng/mL interferon-γ, primary umbilical cord-derived mesenchymal stem cells (ATCC No. PCS-500-010; Lot No. 63822428) were cultured for one week.
(§7) After completion of culturing, the mesenchymal stem cells pretreated with interferon-γ were washed and additionally cultured for 72 hours in a culture medium supplemented with 10% fetal bovine serum (FBS) free of exosomes. The reason of employing exosome-free FBS was to prevent FBS-derived exosomes other than those secreted from the cells from being incorporated because generally used FBS contained a large amount of exosomes derived from bovine serum.
(§8) In a culture medium [high glucose DMEM (Gibco, Cat no. 11995-065); 10% fetal bovine serum (HyClone), 1% MEM non-essential amino acids solution (100×) (Gibco, Cat no. 11140-050)] containing 10 μM of tetrandrine, primary umbilical cord-derived mesenchymal stem cells (ATCC No. PCS-500-010; Lot No. 63822428) were cultured for one week.
(§9) After completion of culturing, the mesenchymal stem cells pretreated with tetrandrine were washed and additionally cultured for 72 hours in a culture medium supplemented with 10% fetal bovine serum (FBS) free of exosomes. The reason of employing exosome-free FBS was to prevent FBS-derived exosomes other than those secreted from the cells from being incorporated because generally used FBS contained a large amount of exosomes derived from bovine serum. […]

The test system is the same in assay [2]. The experiment in a line: Stem cell proliferation (CCK, absorbance 450 nm) after pretreatment. To be noted: 24 h culture, CCK 4 h. The protocol:
as §1, §4, §6, §8
(§10) In a culture medium [high glucose DMEM (Gibco, Cat no. 11995-065); 10% fetal bovine serum (HyClone), 1% MEM non-essential amino acids solution (100×) (Gibco, Cat no. 11140-050)] containing 10 μg/mL hyaluronic acid, primary umbilical cord-derived mesenchymal stem cells (ATCC No. PCS-500-010; Lot No. 63822428) were cultured for one week.
(§11) In a culture medium [high glucose DMEM (Gibco, Cat no. 11995-065); 10% fetal bovine serum (HyClone), 1% MEM non-essential amino acids solution (100×) (Gibco, Cat no. 11140-050)] containing 30 nM of substance P, primary umbilical cord-derived mesenchymal stem cells (ATCC No. PCS-500-010; Lot No. 63822428) were cultured for one week.
(§12) In a culture medium [high glucose DMEM (Gibco, Cat no. 11995-065); 10% fetal bovine serum (HyClone), 1% MEM non-essential amino acids solution (100×) (Gibco, Cat no. 11140-050)] containing 10 nM of resveratrol, primary umbilical cord-derived mesenchymal stem cells (ATCC No. PCS-500-010; Lot No. 63822428) were cultured for one week.
(§13) In a culture medium [high glucose DMEM (Gibco, Cat no. 11995-065); 10% fetal bovine serum (HyClone), 1% MEM non-essential amino acids solution (100×) (Gibco, Cat no. 11140-050)] containing 10 μM of lanifibranor, primary umbilical cord-derived mesenchymal stem cells (ATCC No. PCS-500-010; Lot No. 63822428) were cultured for one week.
(§14) Mesenchymal stem cells and the exendin-4-pretreated mesenchymal stem cells of the Example were each seeded at a density of 3,000 cells/well into 96-well plates containing 100 μL of a culture medium [high glucose DMEM (Gibco, Cat no. 11995-065), 10% fetal bovine serum (HyClone), 1% MEM non-essential amino acids solution (100×) (Gibco, Cat no. 11140-050)] per well and cultured for 24 hours in a CO2 incubator. Then, CCK solution (10 μL/well) was added, and incubation was continued for 4 hours in the CO2 incubator, followed by reading absorbance at a wavelength of 450 nm (420-480 nm) to determine proliferation.
as §14, with “PMA-pretreated” for “exendin-4-pretreated”, “proliferation. […]” for “proliferation.”

Assay [3] shares this test system. The experiment in a line: Number of exosomes by nanoparticle tracking assay (NanoSight NS300). To be noted: for No. of exosome particles, yield per 10^6 cells: then 72 h exosome-free FBS medium. Here is the method:
as §1, §2, §3, §4, §5, §6, §7, §8, §9

Assay [4] has the same test system. Kind of assay: Content of exosomal RNA (NanoDrop). To be noted: for Exosomal RNA, yield per 10^6 cells: then 72 h exosome-free FBS medium. The protocol: as §1, §2, §3, §4, §5, §6, §7, §8, §9
The test system is the same in assay [5]. The experiment in a line: Stem cell stemness: colony formation (CFU-F, crystal violet) after pretreatment. To be noted: for colonies formed (each 50 or more cells): 1,000 cells/dish, 21 days; for CFU-F increase: vs non-treated. The protocol: as §1, §4, §6, §8, §10, §11, §12, §13
Mesenchymal stem cells and the exendin-4-pretreated mesenchymal stem cells of the Example were each seeded at a density of 1,000 cells/dish into 100-mm cell culture dishes containing […] of a culture medium [high glucose DMEM (Gibco, Cat no. 11995-065), 10% fetal bovine serum (HyClone), 1% MEM non-essential amino acids solution (100×) (Gibco, Cat no. 11140-050)] per dish and cultured for 21 days. The cell-attached dishes were washed twice with PBS, followed by fixation with 95% methanol at room temperature for about 2 min. The fixed cells were washed three times with PBS and stained with 0.5% crystal violet [(sigma, C-3886, USA) […], methanol 100 ml] for 5 min. After water washing and drying at room temperature, colonies, each composed of 50 or more cells, were counted for comparison.
Mesenchymal stem cells and the PMA-pretreated mesenchymal stem cells of the Example were each seeded at a density of 1,000 cells/dish into 100-mm cell culture dishes containing […] of a culture medium [high glucose DMEM (Gibco, Cat no. 11995-065), 10% fetal bovine serum (HyClone), 1% MEM non-essential amino acids solution (100×) (Gibco, Cat no. 11140-050)] per dish and cultured for 21 days. The cell-attached dishes were washed twice with PBS, followed by fixation with 95% methanol at room temperature for about 2 min. […]

Where [6] appears, read: 10 nM PMA pretreatment one week.
The mark [7] stands for this setting: 10 μM lanifibranor pretreatment one week.
[8] abbreviates: 10 nM resveratrol pretreatment one week.
The mark [9] stands for this setting: 10 μM tetrandrine pretreatment one week.

In the case of `CCCCCCCCCCCCCC(=O)O[C@@H]1[C@@H](C)[C@@]2(O)[C@@H](C=C(CO)C[C@]3(O)C(=O)C(C)=C[C@@H]23)[C@@H]2C(C)(C)[C@]12OC(C)=O` [PMA, phorbol 12-myristate 13-acetate], in assay [1] (setting [6]), the “fold greater exosomal proteins than non-treated mesenchymal stem cells” value is “about 5 fold” and the “Exosomal protein, yield per 10^6 cells” value is reported as 10.0 ug. In assay [2] (setting [6]), the “increase in proliferation relative to non-treated mesenchymal stem cells” value is “about 220%” and the “proliferation ratio relative to non-treated mesenchymal stem cells (1)” value was 2.2. Further, in assay [3] (setting [6]), the “fold more exosomes than non-treated mesenchymal stem cells” value is “about 5.2 fold”. Moreover, the “No. of exosome particles, yield per 10^6 cells” value in assay [3] (10 nM PMA pretreatment one week, non-treated 2.3) is recorded as 11.90 10^9. Moreover, in assay [4] (setting [6]), the “fold greater exosomal RNA than non-treated mesenchymal stem cells” value is on record as “about 4 fold”. In addition, in assay [4] (10 nM PMA pretreatment one week, non-treated 31.0), the “Exosomal RNA, yield per 10^6 cells” value is listed as 125.0 ng. Also, the “colonies formed (each 50 or more cells)” value in assay [5] (10 nM PMA pretreatment one week, non-treated 28.6) is 285.7 colonies. The CFU-F increase entry in assay [5] (setting [6]) is on record as “about 996.5%”.

With `O=C(O)CCCc1cc2cc(Cl)ccc2n1S(=O)(=O)c1ccc2ncsc2c1` [lanifibranor], in assay [1] (setting [7]), the “fold greater exosomal proteins than non-treated mesenchymal stem cells” value is “about 4.6 fold” and the “Exosomal protein, yield per 10^6 cells” value came to 9.2 ug. In assay [2] (setting [7]), the “increase in proliferation relative to non-treated mesenchymal stem cells” value is on record as “about 181%” and the “proliferation ratio relative to non-treated mesenchymal stem cells (1)” value was 1.81. Also, the “fold more exosomes than non-treated mesenchymal stem cells” value in assay [3] (setting [7]) was “about 4.95 fold”. For the same compound, in assay [3] (10 μM lanifibranor pretreatment one week, non-treated 2.30), the “No. of exosome particles, yield per 10^6 cells” value was 11.4 10^9. Further, the “fold greater exosomal RNA than non-treated mesenchymal stem cells” value in assay [4] (setting [7]) is on record as “about 4.1 fold”. Also, the “Exosomal RNA, yield per 10^6 cells” value in assay [4] (10 μM lanifibranor pretreatment one week, non-treated 27.00) worked out at 110.34 ng. In assay [5] (10 μM lanifibranor pretreatment one week, non-treated 40), the “colonies formed (each 50 or more cells)” value was determined as 56.7 colonies. Besides, the CFU-F increase entry in assay [5] (setting [7]) was “about 142%”.

Take `Oc1ccc(C=Cc2cc(O)cc(O)c2)cc1` [resveratrol]: in assay [1] (setting [8]), the “fold greater exosomal proteins than non-treated mesenchymal stem cells” value was “about 5.4 fold” and the “Exosomal protein, yield per 10^6 cells” value came out at 10.78 ug. Also, in assay [2] (setting [8]), the “increase in proliferation relative to non-treated mesenchymal stem cells” value is listed as “about 322%” and the “proliferation ratio relative to non-treated mesenchymal stem cells (1)” value came to 3.22. For the same compound, the “fold more exosomes than non-treated mesenchymal stem cells” value in assay [3] (setting [8]) is “about 5.2 fold”. Further, in assay [3] (10 nM resveratrol pretreatment one week, non-treated 2.3), the “No. of exosome particles, yield per 10^6 cells” value is 11.9 10^9. In addition, the “fold greater exosomal RNA than non-treated mesenchymal stem cells” value in assay [4] (setting [8]) is listed as “about 4.7 fold”. For the same compound, the “Exosomal RNA, yield per 10^6 cells” value in assay [4] (10 nM resveratrol pretreatment one week, non-treated 31.0) amounted to 145.15 ng. For the same compound, the “colonies formed (each 50 or more cells)” value in assay [5] (10 nM resveratrol pretreatment one week, non-treated 28.6) is 311 colonies. Besides, the CFU-F increase result in assay [5] (setting [8]) was “about 1,087%”.

Turning to `COc1ccc2cc1Oc1ccc(cc1)C[C@H]1c3cc(c(OC)cc3CCN1C)Oc1c(OC)c(OC)cc3c1[C@H](C2)N(C)CC3` [tetrandrine], in assay [1] (setting [9]), the “fold greater exosomal proteins than non-treated mesenchymal stem cells” value is “about 4.5 fold” and the “Exosomal protein, yield per 10^6 cells” value is listed as 9.42 ug. Further, in assay [2] (setting [9]), the “increase in proliferation relative to non-treated mesenchymal stem cells” value was “about 260%” and the “proliferation ratio relative to non-treated mesenchymal stem cells (1)” value is recorded as 2.6. In addition, the “fold more exosomes than non-treated mesenchymal stem cells” value in assay [3] (setting [9]) is reported as “about 4.3 fold”. Further, in assay [3] (10 μM tetrandrine pretreatment one week, non-treated 2.3), the “No. of exosome particles, yield per 10^6 cells” value is 9.84 10^9. In addition, in assay [4] (setting [9]), the “fold greater exosomal RNA than non-treated mesenchymal stem cells” value is recorded as “about 4.4 fold”. For the same compound, in assay [4] (10 μM tetrandrine pretreatment one week, non-treated 31.0), the “Exosomal RNA, yield per 10^6 cells” value was found to be 136.0 ng. The “colonies formed (each 50 or more cells)” value in assay [5] (10 μM tetrandrine pretreatment one week, non-treated 28.7) came out at 121.3 colonies. The CFU-F increase result in assay [5] (setting [9]) was “about 423%”.

Source of the values: patent publication US20220195384A1, “COMPOSITION FOR PROMOTING PRODUCTION OF STEM CELL-DERIVED EXOSOMES AND INCREASING STEMNESS” (BREXOGEN INC., priority 2019, published 2022).
